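Grown in 96-well plates, cells were treated for 48 hours with each compound at five concentrations. Insufficient inhibition: endpoint recorded as highest concentration tested. Here, GI50 denotes the concentration required for 50% inhibition of growth.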 Calls of active or inactive are those of the source. Rule as the data show it: active = GI50 up to about 1.1 µM and inactive = higher. Numbered stars: 1 amine (or outer) side, 2 acyl side, 3 side chain; on linkers, the order of the positions; unused ones are H or OH. Square brackets hold non-standard residues; d marks the D form. Peptide text beside a SMILES is read from it. X55 = CC[C@H](C)[C@H](OC(=O)[C@@H](C)[C@@H](CC)N[*:1])C(=O)[*:2]; X31 = C[C@H](N[*:1])C(=O)C(C)(C)C(=O)[*:2]; NMeY = CN[C@@H](Cc1ccc(O)cc1)C(=O)O; NMeL = CN[C@@H](CC(C)C)C(=O)O; NMeV = CN[C@H](C(=O)O)C(C)C
Legend:
Experiment in all cases: DTP human tumour cell line panel, 48 h
A498 = system: A498
A549 = system: A549
CCRF-CEM = system: CCRF-CEM
HCC 2998 = system: HCC 2998
HOP-92 = system: HOP-92
HT-29 = system: HT-29
Hs-578T = system: Hs-578T
IGROV-1 = system: IGROV-1
NCI-H226 = system: NCI-H226
NCI-H23 = system: NCI-H23
OVCAR-3 = system: OVCAR-3
OVCAR-8 = system: OVCAR-8
SK-MEL-28 = system: SK-MEL-28
SK-OV-3 = system: SK-OV-3
SN12C = system: SN12C
SNB-19 = system: SNB-19
SNB-75 = system: SNB-75
SW-620 = system: SW-620
UACC-257 = system: UACC-257
UACC-62 = system: UACC-62

| Structure (SMILES) | GI50 (A498) | GI50 (A549) | GI50 (CCRF-CEM) | GI50 (HCC 2998) | GI50 (HOP-92) | GI50 (HT-29) | GI50 (Hs-578T) | GI50 (IGROV-1) | GI50 (NCI-H226) | GI50 (NCI-H23) | GI50 (OVCAR-3) | GI50 (OVCAR-8) | GI50 (SK-MEL-28) | GI50 (SK-OV-3) | GI50 (SN12C) | GI50 (SNB-19) | GI50 (SNB-75) | GI50 (SW-620) | GI50 (UACC-257) | GI50 (UACC-62) |
| --- | --- | --- | --- | --- | --- | --- | --- | --- | --- | --- | --- | --- | --- | --- | --- | --- | --- | --- | --- | --- |
| CC(C)CCOC(=O)NC(Nc1ccc(F)cc1)(C(F)(F)F)C(F)(F)F | 42.9 µM (inactive) | 23.1 µM (inactive) | 19.5 µM (inactive) | 21.7 µM (inactive) | 44.2 µM (inactive) | 39.8 µM (inactive) | > 100 µM (inactive) | 38.2 µM (inactive) | > 100 µM (inactive) | 33.4 µM (inactive) | 37.4 µM (inactive) | 51.8 µM (inactive) | > 100 µM (inactive) | 63 µM (inactive) | 36.1 µM (inactive) | 62.2 µM (inactive) | > 100 µM (inactive) | 19 µM (inactive) | > 100 µM (inactive) | 0.279 µM (active) |
| CC1C2CC(C(S(=O)(=O)O)C2=O)C1(C)C (configuration not stated) | > 100 µM (inactive) | – | > 100 µM (inactive) | > 100 µM (inactive) | > 100 µM (inactive) | > 100 µM (inactive) | > 100 µM (inactive) | > 100 µM (inactive) | > 100 µM (inactive) | > 100 µM (inactive) | > 100 µM (inactive) | > 100 µM (inactive) | > 100 µM (inactive) | > 100 µM (inactive) | > 100 µM (inactive) | > 100 µM (inactive) | > 100 µM (inactive) | > 100 µM (inactive) | > 100 µM (inactive) | > 100 µM (inactive) |
| O=C1c2ccccc2-n2c1nc1cc(Cl)ccc1c2=O | > 100 µM (inactive) | 66.8 µM (inactive) | 3.84 µM (inactive) | > 100 µM (inactive) | 71.6 µM (inactive) | 61.9 µM (inactive) | 20.2 µM (inactive) | 33.3 µM (inactive) | > 100 µM (inactive) | 11.8 µM (inactive) | 23 µM (inactive) | 36.8 µM (inactive) | – | > 100 µM (inactive) | > 100 µM (inactive) | > 100 µM (inactive) | 85.9 µM (inactive) | – | 9.68 µM (inactive) | 11.2 µM (inactive) |
| NC1=C(N2CCOCC2)C(=O)NC2=N/C(=C\c3ccccc3O)C(=O)N21 | > 100 µM (inactive) | > 100 µM (inactive) | > 100 µM (inactive) | 95.7 µM (inactive) | 51.8 µM (inactive) | > 100 µM (inactive) | > 100 µM (inactive) | > 100 µM (inactive) | 59.6 µM (inactive) | > 100 µM (inactive) | – | > 100 µM (inactive) | > 100 µM (inactive) | > 100 µM (inactive) | > 100 µM (inactive) | > 100 µM (inactive) | > 100 µM (inactive) | > 100 µM (inactive) | > 100 µM (inactive) | – |
| CC[C@H](C)[C@@H]1OC(=O)[C@@H](C)[C@@H](CC)NC(=O)[C@H](C)NC(=O)C(C)(C)C(=O)[C@H](C)NC(=O)[C@H](Cc2ccc(OC)cc2)N(C)C(=O)[C@H](C(C)C)N(C)C(=O)CNC(=O)[C@H](CC(C)C)N(C)C(=O)CNC1=O [DOLASTATIN 11] (cyclo(A[X55]G[NMeL]G[NMeV][NMeY](Me)[X31])) | 0.118 µM (active) | 0.0175 µM (active) | 0.0274 µM (active) | 0.0188 µM (active) | 0.0752 µM (active) | 0.0264 µM (active) | 0.258 µM (active) | 0.0355 µM (active) | 0.137 µM (active) | 0.071 µM (active) | 0.0413 µM (active) | 0.101 µM (active) | – | 0.229 µM (active) | 0.194 µM (active) | 0.185 µM (active) | 0.0847 µM (active) | 0.286 µM (active) | 0.0817 µM (active) | 0.0893 µM (active) |
| Cc1oc2nc(N(C)C)n3c(C)nnc3c2c1C | > 100 µM (inactive) | > 100 µM (inactive) | > 100 µM (inactive) | > 100 µM (inactive) | > 100 µM (inactive) | > 100 µM (inactive) | > 100 µM (inactive) | > 100 µM (inactive) | > 100 µM (inactive) | > 100 µM (inactive) | – | > 100 µM (inactive) | > 100 µM (inactive) | > 100 µM (inactive) | > 100 µM (inactive) | > 100 µM (inactive) | > 100 µM (inactive) | > 100 µM (inactive) | > 100 µM (inactive) | > 100 µM (inactive) |
| CC1=C(C(=O)NC(C)(C)C)CC(C(=O)NC(C)(C)C)C(C)N1 (configuration not stated) | 73.1 µM (inactive) | > 100 µM (inactive) | 61 µM (inactive) | > 100 µM (inactive) | 71.1 µM (inactive) | > 100 µM (inactive) | > 100 µM (inactive) | > 100 µM (inactive) | > 100 µM (inactive) | > 100 µM (inactive) | > 100 µM (inactive) | > 100 µM (inactive) | – | > 100 µM (inactive) | > 100 µM (inactive) | 85.1 µM (inactive) | 40.4 µM (inactive) | > 100 µM (inactive) | > 100 µM (inactive) | > 100 µM (inactive) |

— ChEMBL document CHEMBL1201862, “PubChem BioAssay data set” (2004)
